In series [1] the target is T1, Aβ plaques in AD human brain slices (Homo sapiens, UniProt P05067).
T1 construct: mainly Abeta40/42 cut from APP) in post-mortem AD frontal cortex slices
In words: In vitro autoradiography on AD human brain slices (frontal cortex). It is filed as binding. On the procedure:
(§1) Post-mortem human brain slices (10 μm thickness) were obtained from and the subject cases were analyzed by the Neurobiobank München (NBM, Munich, Germany), where tissues were collected on the basis of written informed consent according to the guidelines of the ethics committee of the Ludwig-Maximilians-University Munich, Germany (#345-13). The use of brain tissue samples in this study was approved by the ethics committee of the Faculty of Medicine at the University of Tuebingen (Ethics approval number: 813/2018BO2). Table 1 summarizes the information of the subjects from which samples were obtained and used in the experiment.
(§2) For autoradiography, brain slices were thawed for one hour before pre-incubation in BSA buffer for 25 minutes at room temperature. To determine total binding (TB), brain slices were incubated with the tracer (10 nM [^18F]PFSB, 10 nM [^18F]MFSB). Incubation of consecutive slices with the correspondent non-radioactive compounds (10 μM PFSB, […]) was performed to determine non-specific binding (NSB). The non-radioactive compounds were prepared by dissolving in DMSO to 10 mM, which yielded DMSO concentration of ≤0.1% in the final solution. Incubation was carried out for one hour at room temperature with subsequent washing in cold BSA buffer (three times for ten minutes) followed by three dipping in cold deionized water. After drying under UV lamps, brain slices were exposed to a storage phosphor screen (Molecular Dynamics, Caesarea, Israel) for 18 hours, which was then scanned in a phosphor imager (STORM 840, Molecular dynamics, Sunnyvale, CA, USA).
(§3) Quantitative data analysis was performed by drawing four regions of interest (ROIs) in relevant areas of the slice and one ROI next to it for background subtraction (ImageJ 1.8.0_172, National Institute of Health, Bethesda, Maryland, USA) (Schneider, C. A. et al., NIH Image to ImageJ: 25 years of image analysis; Nat Methods 2012, 9 (7), 671-5). Specific binding (SB) is obtained by subtracting NSB from TB. The SB disease/SB control ratio was calculated by dividing by the SB in diseased tissues with the respective SB in control tissues.

Series [2] is described as follows: In vivo dynamic PET/MR imaging, pharmacokinetic profile. Also noted: species or system mouse (wild-type female C57BL/6J). The settings on record: i.v. The protocol:
The animal experiments were performed in compliance to the European directives on the protection and use of laboratory animals (Council Directive 2010/63/UE) and the German animal welfare act with approval from the local authorities (Regierungspräsidium Tuebingen, R3/19G). Three healthy wild-type female C57BL/6J mice (20.3±0.9 g; 9 weeks old) purchased from Charles River Laboratories (Sulzbach, Germany) were maintained in a vivarium on a 12:12 hour light dark cycle and were kept at a temperature of 22° C. with 40-60% humidity and free access to a standard diet and tap water.
The mice (n=3) were anaesthetized with 1.5% isoflurane evaporated in 100% oxygen at a flow rate of 0.8 L/min. Body temperature of 37° C. was maintained using a feedback temperature control unit. PET imaging studies were performed on Inveon dedicated microPET system (Inveon D-PET, Siemens, Knoxville, TN, USA). Five seconds after the start of PET acquisition, mice were injected intravenously with 9.9±0.6 MBq of [^18F]MFSB (Am=46.2±2.5 GBq/μmol at time of injection). The one-hour dynamic acquisitions were divided into 39 time frames (12×5 s, 6×10 s, 6×30 s, 5×60 s and 10×300 s). A 13-minute transmission measurement with a cobalt-57 point source was performed for attenuation correction. Subsequently, an anatomical magnetic resonance (MR) scan with a 7 Tesla MR scanner (ClinScan, Bruker BioSpin MRI GmbH, Ettlingen, Germany) using a rat whole-body volume coil and the Paravision software (v6.0.1, Bruker, Ettlingen, Germany) using a T2-weighted Turbo-RARE MRI sequence.
The PET image was reconstructed via the OSEM3D/SP-MAP reconstruction algorithm and coregistered to the whole-body MRI scan. Volumes of interest (VOIs) were hand-drawn for the relevant organs based on the MR anatomy in PMOD (PMOD Technologies, Faellanden, Switzerland, Version 4.2) and VOIs at different regions in the mouse brain were extracted using the atlas provided by PMOD to calculate the respective time-activity curves (TACs). Standardized uptake values (SUVs) were calculated as a ratio of the detected activity with injected activity and weight (SUV=(TAC (kBq/cc)/inj. activity (kBq))*weight (g)).

Series [3] concerns the target αSYN pathology in PD human brain slices (Homo sapiens, UniProt P37840). Description: In vitro autoradiography on PD human brain slices (frontal cortex). It is filed as binding. The note with it: 10 nM tracer; NSB with 10 μM non-radioactive compound. On the procedure: as §1
For autoradiography, brain slices were thawed for one hour before pre-incubation in BSA buffer for 25 minutes at room temperature. To determine total binding (TB), brain slices were incubated with the tracer (10 nM [^18F]PFSB, 10 nM [^18F]MFSB). […]
Quantitative data analysis was performed by drawing four regions of interest (ROIs) in relevant areas of the slice and one ROI next to it for background subtraction (ImageJ 1.8.0_172, National Institute of Health, Bethesda, Maryland, USA) (Schneider, C. A. et al., NIH Image to ImageJ: 25 years of image analysis; Nat Methods 2012, 9 (7), 671-5). […] The SB disease/SB control ratio was calculated by dividing by the SB in diseased tissues with the respective SB in control tissues.

Series [4] concerns the target αSYN pathology in MSA human brain slices (Homo sapiens, UniProt P37840). In words: In vitro autoradiography on MSA human brain slices (cerebellum). The class given is binding. The protocol: as §1, §2, §3
Another series concerns αSYN. The note with it: result in words; cited from earlier work.
Another series concerns Aβ fibrils. The note with it: result in words; cited from earlier work.
[5] abbreviates: 10 nM tracer, NSB with 10 μM non-radioactive compound.

T1 sequence (P05067 672-713 limits assumed): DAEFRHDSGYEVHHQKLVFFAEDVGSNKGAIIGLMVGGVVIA

Take `[18F]c1ccc2nc(/C=C/c3ccc(N4CCOCC4)cc3)sc2c1` [[^18F]MFSB]: the “SB disease/SB control, AD/frontal cortex ctrl” value in series [1] (setting [5]) is reported as 1.03. In addition, in series [1] (result in words, FIG. 12), the “binding in AD brain regions with Aβ plaques / AD/frontal cortex SB ratio in words” value is “remained favorable”. Moreover, the “crossing of the BBB” value in series [2] (9.9±0.6 MBq, 60 min dynamic PET/MR) is “crossing of the BBB was successful”. Further, the “clearance from lungs and liver” value in series [2] (after first 2 min, result in words) is “fast to moderate clearance”. Moreover, in series [2] (first 2 min), the “uptake in liver (SUV)” value is listed as “≈ 5 SUV” and the “uptake in lungs (SUV)” value is listed as “≈ 5 SUV”. In addition, in series [2] (result in words), the “clearance (brain), over 60 min” value is recorded as “beginning of clearance was observed”; the kidney uptake result is “Significant kidney uptake”; the “renal excretion, start” value is on record as “renal excretion starting in the first few minutes”. In addition, the “SB disease/SB control, PD/frontal cortex ctrl” value in series [3] was 1.18. Moreover, in series [4] (setting [5]), the “SB disease/SB control, MSA2/cerebellum ctrl” value is recorded as 1.27. Moreover, the “selectivity towards αSYN over Aβ” value in series [4] (autoradiography, result in words, FIG. 12) was “validated the selective binding to αSYN”. Also, the “non-specific binding on MSA sections” value in series [4] (result in words, hampered quantification of the disease/control SB ratio) is “with [^18F]MFSB was hampered by high NSB”.
For `Cc1ccc2c(c1)sc(-c1ccc(N(C)C)cc1)[n+]2C` [thioflavin T], the “binding to αSYN” value in the series on αSYN is reported as “does not bind to αSYN”. In addition, the “binding to Aβ fibrils” value in the series on Aβ fibrils is recorded as “known to bind to Aβ fibrils”.

These data come from patent publication US20260327195A1, “2-STYRYLBENZOTHIAZOLE DERIVATIVES AS ALPHA-SYNUCLEIN BINDING COMPOUNDS” (Eberhard Karls Universität Tübingen Medizinische Fakultät, priority 2023, published 2026).
